Tests used:
Assay type in all cases: cell-based, mouse
JNK = JNK activity (GST-c-Jun kinase assay) in OVA-stimulated OVA-IgE-sensitized MC/9 cells
Procedure: MC/9 cells (5×10^6/ml) were cultured with 500 ng/ml anti-OVA IgE for 2 h. The cells were washed with medium three times and cultured with fresh medium for an additional 2 h. OVA dissolved in PBS or anti-IgE was added for the stimulation, and PBS was used as a control vehicle.
The activity of JNK was measured by monitoring the activity of a Glutathione S-transferase-c-Jun-(1-79) fusion protein. Cells (3×10^6) were lysed in a buffer (20 MM Tris-HCl, pH 7.6, 250 mM NaCl, 3 mM EDTA, 3 mM EGTA, 0.5% NP-40, 2 mM Na3VO4, 1 mM dithiothreitol (DTT), 1 mM phenylmethylsulfonyl fluoride (PMSF), 20 μg/ml aprotinin, 5 μg/ml leupeptin). The lysates were mixed with GST-c-Jun-Sepharose beads and rotated at 4° C. for 3 h. The beads were washed twice in lysis buffer and once in kinase assay buffer (20 mM Hepes, pH 7.5, 20 mM β-glycerophosphate, 10 mM MgCl2, 1 mM DTT, 50 mM Na3VO4, 10 mM p-nitrophenyl phosphate). After the final wash, 40 μl of a kinase assay buffer containing 10 μCi of γ-^32P-ATP (ICN Pharmaceuticals, Irvine, Calif.) were added per sample. […] The bands corresponding to GST-c-Jun were cut out of the gel, and radioactivity was determined by liquid scintillation counting. […]

p38 MAP kinase = p38 MAP kinase immunoprecipitation kinase assay (ATF-2 substrate) in OVA-stimulated sensitized MC/9 cells
Procedure: MC/9 cells sensitized with OVA-IgE were incubated in the presence of PBS (O min) or 10 μg/ml OVA for 1, 5, 15, 30, or 60 min. To immunoprecipitate p38 kinase, 3×10^6 cells were lysed by vigorous mixing in 0.4 ml of extraction buffer (1% Triton X-100, 10 mM Tris-HCl (pH 7.4), 5 mM EDTA, 50 mM NaCl, 50 mM […], 0.1% bovine serum albumin (BSA), 20 μg/ml aprotinin, 1 mM PMSF, and 2 mM Na3VO4). The lysate was incubated with the rabbit anti-serum raised against the COOH-terminal peptide sequence of p38 (1:400 dilution) for 2 h at 4° C. Recombinant protein G sepharose 4 B was added to the lysate and incubated for an additional 1 h at 4° C. The immunoprecipitates were washed once with extraction buffer, twice with PAN buffer (10 mM piperazine-N, N′-bis (2-ethanesulfonic acid) (PIPES, pH 7.0), 100 mM NaCl, 20 μg/ml aprotinin). […] The kinase activity was quantified with a PhosphorImager (Molecular Dynamics, Sunnyvale, Calif.).
MC/9 cells sensitized with OVA-IgE (3×10^6) were preincubated with either 1-1000 nM wortmannin or a control (0.01% DMSO) for 15 min and stimulated for 5 min by addition of 10 μg/ml OVA. […] The data are expressed as the percentage of p38 activity detected in the presence of 10 μg/ml OVA and 0.01% DMSO (*, p<0.05).

TNF-α production = TNF-α production by OVA-stimulated sensitized MC/9 cells, ELISA; conditions: then 10 μg/ml OVA 3 h
Procedure: An ELISA for TNF-α production was performed as follows. Purified rat anti-mouse TNF-α monoclonal antibody was diluted to 2 μg/ml in coating solution (0.1 M NaHCO3, pH 8.2) and 50 μg was added to wells of an ELISA plate (Dynatech Laboratories). […] After washing twice, standards (16 pg/ml −4 ng/ml recombinant mouse TNF-α) and samples were added at 100 μl per well and incubated overnight at 4° C. After washing four times, biotinylated rabbit anti-mouse TNF-α polyclonal antibody (1 μg/ml) was added to wells and incubated at room temperature for 45 min and wells were washed six times. […] ABTS (2,2′-Azino-bis(3-ethylbenzthiazoline-6-sulfonic acid) substrate (30 mg/ml 0.1 M citric acid, pH 4.35) containing 0.03% H2O2 was added at 100 μl per well and color reaction was allowed to develop at room temperature for 30 min. A plate was read at OD 410 nm and analyzed by Mycroplate Manager (Bio Rad, Hercules, Calif.).
MC/9 cells (1×10^6/ml) were incubated with 500 ng/ml mouse monoclonal IgE specific for OVA (OVA-IgE) for 2 h. […] After the incubation, the cell supernatant was harvested and TNF-α production was measured by ELISA.
The effect of wortmannin on TNF-α production in MC/9 cells was also examined. […] TNF-α in the medium was measured by ELISA.
MC/9 cells sensitized with OVA-IgE (1×10^6/ml) were incubated with 0.1% DMSO or 30 μM PD 098059 for 1 h. […] TNF-α in the medium was measured by ELISA.

human TNF-α promoter = test: TNF-α promoter luciferase reporter pTNF(-1311)Luc in MC/9 cells stimulated by FcεRI aggregation
Procedure: The pXP1 plasmid containing full length of the human TNF-α promoter just upstream of the luciferase gene, designated pTNF(-1311)Luc, was provided by Dr. James S. Economou (Division of Surgical Oncology, UCLA School of Medicine, Los Angels, Calif.). pTNF(-1311)Luc was transfected into MC/9 by the DEAE-dextran method. 2×10^6 cells were washed once with 1×TBS (25 mM Tris, 137 mM NaCl, 5 mM KCl, 0.5 mM Na2HPO4, 0.49 MM MgCl2, 0.68 mM CaCl21 pH 7.5). Cells were suspended with 0.4 ml of 500 μg DEAE-dextran/4 μgDNA mixture and incubated at room temperature for 30 min. After washed with 1×TBS, cells were suspended with 10 ml of culture medium and plated on culture dish. […]
Luciferase activity was measured to measure TNF-α promoter activity. […] 30 μl of the lysate was mixed with the same volume of Luciferase Assay Substrate containing beetle luciferin as a substrate (Promega, Madison Wis.), and chemiluminescence was measured for 30 sec as relative light units by a luminometer (Monolight 2010, Analytical Luminescence Laboratory, San Diego, Calif.).
MC/9 cells transiently transfected by pTNF(-1311)Luc were passively sensitized with OVA-IgE, and incubated for an additional 15 h with 10 μg/ml OVA or PBS in the presence of 0.01% DMSO or 100 nM wortmannin. […] Luciferase activity in cell lysates was measured as relative light units (RLU) and standardized by control RLU (mean±S.D., N=4, p<0.01). […]

ERK2 [1] = test: ERK2 in vitro kinase assay (32P incorporation into myelin basic protein) in OVA-stimulated sensitized MC/9 cells
Procedure: MC/9 cells sensitized with OVA-IgE (1×10^6/ml) were incubated with 0.1% DMSO (control and 0 nM) or 3-30 μM PD 098059 for 1 h and the reaction was stopped by centrifugation at 5 min after the stimulation. The cells were then incubated with 10 μg/ml OVA or PBS (control) for 5 min. Kinase activity of ERK2 was measured as ^32P incorporation into myelin basic protein (MBP).
In vitro kinase assay of ERK2 was carried out as described above with some minor modifications. 3×10^6 cells were lysed by vigorous mixing in 0.4 ml of lysis buffer (20 mM Tris-HCl (pH 8.0), 1% Triton X-100, 10% glycerol, 137 mM NaCl, 1.5 mM MgCl2, 1 mM EGTA, 50 mM NaF, 1 mM Na3VO4, 1 mM PMSF, 5 μg/ml leupeptin, and 10 μg/ml aprotinin). The lysate was incubated with anti-ERK2 antibody (2 μg/ml) for 2 hrs at 4° C. Recombinant protein G sepharose 4B was added to the lysate and incubated for an additional 1 hr at 4° C. The immune complexes were washed three times with lysis buffer, and once with kinase buffer (30 mM Tris-HCl (pH 8.0), 20 mM MgCl2, 2 mM MnCl2). For the in vitro kinase assay, the immune complex suspension was incubated with 9 μg myelin basic protein (MBP) and 10 μCi of [γ-^32P] ATP in kinase buffer in a final volume of 30 μl for 30 min at 30° C. […] The bands corresponding to MBP were cut out of the gel, and radioactivity was determined by liquid scintillation counting.

ERK2 [2] = test: ERK2 phosphorylation by anti-ERK2 immunoblot in MC/9 cells; conditions: PD 098059, MC/9 cells
Procedure: After different treatments, 1×10^6 cells were lysed in buffer (150 mM NaCl, 1% Nonidet P-40, 0.5% deoxycholic acid sodium salt, 0.1% SDS, 50 mM Tris (pH 7.6), 10 μg/ml aprotinin, […] leupeptin, 1 mM phenylmethylsulfonyl fluoride). Samples were electrophoresed on SDS-10% polyacrylamide gels and proteins were transferred to nitrocellulose membranes. Membranes were incubated overnight in blocking buffer containing 1% BSA at 4° C. The monoclonal anti-ERK2 antibody (200 μg/69 μl, Upstate Biotechnology) was added to the blocking buffer (1:1000), and blots were incubated for an additional 1 h at room temperature. The blots were washed in TBST (25 mM Tris (pH 8.0), 125 mM NaCl, 0.025% Tween 20), and specific reactive proteins were detected by an enhanced chemiluminescence method, employing a sheep anti-mouse Ig antibody linked to horseradish peroxidase (Amersham Corp.).
1×10^6 cells were lysed in buffer (150 mM NaCl, 1% NP40, 0.5% deoxycholic acid sodium salt, 0.1% SDS, 50 mM Tris (pH 7.6), 10 μg/ml aprotinin, […] leupeptin, 1 mM PMSF). […] The blots were washed in TBST (25 mM Tris, pH 8.0, […] NaCl, 0.025% Tween 20) and specific reactive proteins were detected by an enhanced chemiluminescence method, employing a sheep anti-mouse Ig antibody linked to horseradish peroxidase (Amersham, Arlington Heights, Ill.).

Row | SMILES | JNK kinase activity, percentage of that observed in the absence of treatment (JNK; 100 nM wortmannin, 15 min preincubation, 10 μg/ml OVA 10 min, MC/9 cells) | decrease in p38 kinase activities (p38 MAP kinase; 100 nM-1 μM wortmannin, 15 min, then 10 μg/ml OVA 5 min) | decrease in TNF-α production (TNF-α production; 100 nM wortmannin, 15 min) | decrease in OVA-induced luciferase activity (TNF-α promoter) (human TNF-α promoter; 100 nM wortmannin, 10 μg/ml OVA 15 h) | effect on JNK activation (JNK; PD 098059, data not shown) | decrease in OVA-induced ERK2 activity (ERK2 [1]; 30 μM PD 098059, 1 h, then 10 μg/ml OVA 5 min) | effect on ERK2 activities (ERK2 [1]; 10-30 μM PD 098059, MC/9 cells) | effect on p38 activation (p38 MAP kinase; PD 098059, data not shown) | effect on TNF-α production (TNF-α production; 30 μM PD 098059, 1 h) | effect on OVA-induced luciferase activity (TNF-α promoter) (human TNF-α promoter; 30 μM PD 098059, 10 μg/ml OVA 15 h) | effect on ERK2 phosphorylation induced by aggregation of FcεRI (ERK2 [2])
1 | COC[C@H]1OC(=O)c2coc3c2[C@@]1(C)C1=C(C3=O)[C@@H]2CCC(=O)[C@@]2(C)C[C@H]1OC(C)=O [wortmannin] | 8% | 50-60% | 77% | 40% |  |  |  |  |  |  | 
2 | COc1cccc(-c2cc(=O)c3ccccc3o2)c1N [PD 098059] |  |  |  |  | did not inhibit | 65% | significantly inhibited | did not inhibit | did not affect TNF-α production | enhanced OVA-induced luciferase activity | strongly inhibited

From patent publication US6495331B1, “Regulation of cytokine production in a hematopoietic cell” (National Jewish Center for Immunology and Respiratory …, priority 1996, dated 2002)
